This note sets out measurements from publication PMC7253571, “Cucurbitane-Type Triterpene Glycosides from Momordica charantia and Their α-Glucosidase Inhibitory Activities” (Natural Products and Bioprospecting, 2020).

For the assay, the target named is α-glucosidase. Kind of assay: α-glucosidase inhibition assay (PNPG substrate, absorbance at 405 nm). The assay is classed as biochemical. Conditions: substrate PNPG 2.5 mM, enzyme 1.0 U/mL, PPBS pH 6.86, 37 °C, triplicate; read-out: α-Glucosidase inhibitory activity IC50. How it is done:
UV spectra were recorded on a UV-2401PC spectrometer (Shimadzu, Kyoto, Japan). Optical rotations were measured in methanol on JASCO P-1020 digital polarimeter (Jasco, Tokyo, Japan). IR spectra were scanned on a Bruker Tensor-27 Fourier transform infrared spectrometer with KBr pellets (Bruker, German). High-resolution (HR) ESI mass spectra data were measured on a Waters API QSTAR Pulsar spectrometer. 1D and 2D NMR spectra were obtained in pyridine-d5 on Bruker Ascend-400, 600 and 800 MHz NMR spectrometers with tetramethylsilane (TMS) as internal standard (Bruker, Zurich, Switzerland). Column chromatography (CC) was performed on macroporous resin (D-101, Tianjin, China), Lichroprep RP-18 (Merck, German), sephadex LH-20 (Pharmacia, USA), silica gel (200–300 mesh, Qingdao, China), and Semi-preparative HPLC was performed on an Agilent 1260 liquid chromatography system equipped with a ZORBAX SB-C18 column (5 μm, 9.4 × 250 mm, 3.0 mL/min) and a DAD detector. Fractions were detected by TLC, and spots were visualized by spraying with 10% H2SO4 in EtOH, followed by heating. α-glucosidase inhibitory activity was evaluated on the basis of the ability of the compounds to decrease glucosidase activity and then inhibit the breaking of glycosidic bonds in p-nitrophenyl-α-D-glucopyranoside (PNPG). Water was purchased from wahaha group co. LTD. Acetonitrile (chromatographic grade) was purchased from OCEANPAK (Sweden). Common organic solvents are industrial grade, used after re-distillation. PNPG was obtained from Sigma Chemical Co. (St. Louis, Mo, USA). α-glucosidase was purchased from Shanghai yuanye biotechnology Co., Ltd. Potassium phosphate buffer solution (PPBS) was obtained from Shanghai Yidian Scientific Instrument Co., Ltd. 96-well plates was purchased from Nest biotechnology co., LTD.
The α-glucosidase inhibition assay was performed according to the method adapted from the literature with slight modifications. α-glucosidase can cut glycosidic bonds in the PNPG to produce 4-nitrophenol (yellow), then measured its absorbance can determine the activity of enzyme. The test samples and ursolic acid (positive control) were dissolved in dimethylsulfoxide (DMSO), and then diluted with PPBS (pH 6.86) to the required concentration. The α-glucosidase (1.0 U/mL) and substrate (PNPG, 2.5 mM) were dissolved in PPBS. Sample wells included 60 μL of PPBS, 10 μL of test substances, 30 μL of enzyme stock solution, and incubated at 37 °C for 10 min. After the pre-incubation phase, 40 μL of PNPG solution was added and the mixture was incubated for another 20 min at 37 °C. Finally, 80 μL Na2CO3 (0.2 M) solution was added to the sample wells to stop the reaction. The absorbance of the reaction mixture was recorded at 405 nm using a microplate reader. All samples were measured in triplicate. The inhibition rate (%) was calculated by the following formula: Inhibition (%) = [1 − (Asample/Acontrol)] × 100.
With `CC(C)=CC=CC(C)C1CCC2(C)C3C=CC45OCC3(CCC12C)C4CCC(OC1OC(CO)C(O)C(O)C1O)C5(C)C` [Compound 4, 5β,19-epoxy-cucurbita-6,22E,24-trien-3β-ol 3-O-β-D-allopyranoside], the IC50 (in general, the midpoint of a concentration-inhibition curve) was greater than 100 µM. As to `C=C(C)/C=C/C[C@@H](C)[C@H]1CC[C@@]2(C)[C@@H]3C=C[C@@]45OC[C@]3(CC[C@]12C)[C@@H]4CC[C@H](O[C@@H]1O[C@H](CO)[C@@H](O)[C@H](O)[C@H]1O)C5(C)C` [Compound 8, charantoside III], the IC50 came out at 36.4 ± 3.03 µM. Regarding `COC(C=C(C)C)CC(C)C1CCC2(C)C3C=CC45OC(OC)C3(CCC12C)C4CCC(OC1OC(CO)C(O)C(O)C1O)C5(C)C` [Compound 2, (19S,23R)-5β,19-epoxy-19,23-dimethoxycucurbita-6,24-dien-3β-ol 3-O-β-D-glucopyranoside], the IC50 amounted to 63.3 ± 3.04 µM.

For the molecule `COC(C)(C)/C=C/C[C@@H](C)[C@H]1CC[C@@]2(C)[C@@H]3[C@@H](O[C@@H]4O[C@H](CO)[C@@H](O)[C@H](O)[C@H]4O)C=C4C(CC[C@H](O)C4(C)C)[C@]3(C=O)CC[C@]12C` (stereo partly shown) [Compound 9, momordicoside K], the IC50 is 28.4 ± 2.08 µM. As for `COC1OC23C=CC4C1(CCC1(C)C(C(C)CC=CC(C)(C)O)CCC41C)C2CCC(OC1OC(CO)C(O)C(O)C1O)C3(C)C` [Compound 5, 19(S)-methoxy-5β,19-epoxycucurbita-6,23-dien-3β,25-diol 3-O-β-D-glucopyranoside], the figure is 59.1 ± 4.67 µM; as for `C=C(C)/C=C/C[C@@H](C)[C@H]1CC[C@@]2(C)[C@@H]3C=C[C@@]45O[C@@H](OC)[C@]3(CC[C@]12C)[C@@H]4CC[C@H](O[C@@H]1O[C@H](CO)[C@@H](O)[C@H](O)[C@H]1O)C5(C)C` [Compound 7, charantoside I], 35.1 ± 4.15 µM; as for `CO[C@H]1O[C@]23C=C[C@@H]4[C@@]1(CC[C@]1(C)[C@@H]([C@H](C)C[C@@H](C=C(C)C)OC)CC[C@@]41C)C2CC[C@H](O[C@@H]1O[C@H](CO)[C@@H](O)[C@@H](O)[C@H]1O)C3(C)C` (stereo partly drawn) [Compound 3, (19S,23S)-5β,19-epoxy-19,23-dimethoxycucurbita-6,24-dien-3β-ol 3-O-β-D-allopyranoside], greater than 100 µM. On to `CO[C@H]1C=C2C(CC[C@H](O[C@@H]3O[C@H](CO)[C@@H](O)[C@@H](O)[C@H]3O)C2(C)C)[C@]2(C=O)CC[C@]3(C)[C@@H]([C@H](C)C/C=C/C(C)(C)OC)CC[C@@]3(C)[C@H]12` (stereo partly drawn) [Compound 10, 7β,25-dimethoxycucurbita-5(6),23(E)-dien-19-al 3-O-β-D-allopyranoside], for which the IC50 is greater than 100 µM. Turning to `COC(C=C(C)C)CC(C)C1CCC2(C)C3C=CC45OC(OC)C3(CCC12C)C4CCC(OC1OC(CO)C(O)C(O)C1O)C5(C)C` [Compound 1, (19S,23R)-5β,19-epoxy-19,23-dimethoxycucurbita-6,24-dien-3β-ol 3-O-β-D-allopyranoside], the half-maximal inhibitory concentration (IC50) was greater than 100 µM. As for `C=C(C)/C=C/C[C@@H](C)[C@H]1CC[C@@]2(C)[C@@H]3C=C[C@@]45O[C@@H](OC)[C@]3(CC[C@]12C)C4CC[C@H](O[C@@H]1O[C@H](CO)[C@@H](O)[C@@H](O)[C@H]1O)C5(C)C` (stereo partly drawn) [Compound 6, (19R,23E)-5β,19-epoxy-19-methoxycucurbita-6,23,25-trien-3β-ol 3-O-β-D-allopyranoside], the figure is greater than 100 µM.
